Measurements reported in ChEMBL document CHEMBL5154681, “Small Amphiphilic Peptides: Activity Against a Broad Range of Drug-Resistant Bacteria and Structural Insight into Membranolytic Properties” (J Med Chem, 2022).
Values after ≈ are worked out from the molar mass of the structure shown. Square brackets hold non-standard residues; d marks the D form. Peptide text beside a SMILES is read from it. Bip = N[C@@H](Cc1ccc(-c2ccccc2)cc1)C(=O)O; Dip = N[C@H](C(=O)O)C(c1ccccc1)c1ccccc1; 2Nal = N[C@@H](Cc1ccc2ccccc2c1)C(=O)O

Legend:
Escherichia coli = assay: Antibacterial activity against Escherichia coli ATCC 25922 incubated for 24 hrs by microtiter plate method; assay type: functional; details: Escherichia coli, ATCC 25922, 24 h, read-out: MIC
[1] = Hemolytic activity in human RBC assessed as hemolysis incubated for 2 hrs by spectrophotometer analysis; assay type: toxicity, cell-based, Erythrocyte; details: human red blood cells (erythrocytes)
Staphylococcus aureus [2] = assay: Antibacterial activity against methicillin resistant Staphylococcus aureus ATCC BAA-1556 incubated for 24 hrs by microtiter plate method; assay type: functional; details: Staphylococcus aureus, ATCC BAA-1556, 24 h, read-out: MIC
Pseudomonas aeruginosa = assay: Antibacterial activity against Pseudomonas aeruginosa ATCC 27883 incubated for 24 hrs by microtiter plate method; assay type: functional; details: Pseudomonas aeruginosa, ATCC 27883, 24 h, read-out: MIC
Staphylococcus aureus [3] = assay: Antibacterial activity against Staphylococcus aureus ATCC 29213 incubated for 24 hrs by microtiter plate method; assay type: functional; details: Staphylococcus aureus, ATCC 29213, read-out: MIC

Row | SMILES | MIC (Escherichia coli) [µg/mL] | HC50 at 2 h [1] [µg/mL] | MIC (Staphylococcus aureus [2]) [µg/mL] | MIC (Pseudomonas aeruginosa) [µg/mL] | MIC (Staphylococcus aureus [3]) [µg/mL]
1 | NCCCC[C@H](NC(=O)[C@H](CCCCN)NC(=O)[C@H](CCCCN)NC(=O)[C@@H](N)CCCCN)C(=O)N[C@@H](CCCCN)C(=O)N[C@H](C(=O)N[C@H](C(=O)N[C@H](C(=O)O)C(c1ccccc1)c1ccccc1)C(c1ccccc1)c1ccccc1)C(c1ccccc1)c1ccccc1 (H-KKKKK[Dip][Dip][Dip]-OH) | > 100 | 280 | 50 (≈ 37.6 µM) | > 100 | 50 (≈ 37.6 µM)
2 | NCCCC[C@H](NC(=O)[C@H](CCCCN)NC(=O)[C@@H](N)CCCCN)C(=O)N[C@@H](CCCCN)C(=O)N[C@H](C(=O)N[C@H](C(=O)N[C@H](C(=O)O)C(c1ccccc1)c1ccccc1)C(c1ccccc1)c1ccccc1)C(c1ccccc1)c1ccccc1 (H-KKKK[Dip][Dip][Dip]-OH) | > 100 | 255 | 25 (≈ 20.8 µM) | > 100 | 25 (≈ 20.8 µM)
3 | N=C(N)NCCC[C@H](NC(=O)[C@H](CCCNC(=N)N)NC(=O)[C@H](CCCNC(=N)N)NC(=O)[C@H](CCCNC(=N)N)NC(=O)[C@@H](N)CCCNC(=N)N)C(=O)N[C@@H](Cc1ccc2ccccc2c1)C(=O)N[C@@H](Cc1ccc2ccccc2c1)C(=O)N[C@@H](Cc1ccc2ccccc2c1)C(=O)O (H-RRRRR[2Nal][2Nal][2Nal]-OH) | 25 (≈ 18 µM) | 190 | 6.2 (≈ 4.46 µM) | 25 (≈ 18 µM) | 6.2 (≈ 4.46 µM)
4 | N=C(N)NCCC[C@H](NC(=O)[C@H](CCCNC(=N)N)NC(=O)[C@H](CCCNC(=N)N)NC(=O)[C@@H](N)CCCNC(=N)N)C(=O)N[C@@H](CCCNC(=N)N)C(=O)N[C@H](C(=O)N[C@H](C(=O)N[C@H](C(=O)O)C(c1ccccc1)c1ccccc1)C(c1ccccc1)c1ccccc1)C(c1ccccc1)c1ccccc1 (H-RRRRR[Dip][Dip][Dip]-OH) | 25 (≈ 17 µM) | 165 | 12.5 (≈ 8.51 µM) | 50 (≈ 34 µM) | 12.5 (≈ 8.51 µM)
5 | N=C(N)NCCC[C@H](NC(=O)[C@H](CCCNC(=N)N)NC(=O)[C@H](CCCNC(=N)N)NC(=O)[C@@H](N)CCCNC(=N)N)C(=O)N[C@@H](Cc1ccc2ccccc2c1)C(=O)N[C@@H](Cc1ccc2ccccc2c1)C(=O)O (H-RRRR[2Nal][2Nal]-OH) | 50 (≈ 48.2 µM) | 180 | 6.2 (≈ 5.98 µM) | > 100 | 6.2 (≈ 5.98 µM)
6 | N=C(N)NCCC[C@H](NC(=O)[C@H](CCCNC(=N)N)NC(=O)[C@H](CCCNC(=N)N)NC(=O)[C@@H](N)CCCNC(=N)N)C(=O)N[C@@H](Cc1ccc2ccccc2c1)C(=O)N[C@@H](Cc1ccc2ccccc2c1)C(=O)N[C@@H](Cc1ccc2ccccc2c1)C(=O)N[C@@H](Cc1ccc2ccccc2c1)C(=O)O (H-RRRR[2Nal][2Nal][2Nal][2Nal]-OH) | 50 (≈ 34.9 µM) | 70 | 12.5 (≈ 8.73 µM) | > 100 | 12.5 (≈ 8.73 µM)
7 | N=C(N)NCCC[C@H](NC(=O)[C@H](CCCNC(=N)N)NC(=O)[C@H](CCCNC(=N)N)NC(=O)[C@@H](N)CCCNC(=N)N)C(=O)N[C@@H](Cc1ccc(-c2ccccc2)cc1)C(=O)N[C@@H](Cc1ccc(-c2ccccc2)cc1)C(=O)N[C@@H](Cc1ccc(-c2ccccc2)cc1)C(=O)O (H-RRRR[Bip][Bip][Bip]-OH) | > 100 | – | 12.5 (≈ 9.52 µM) | 25 (≈ 19 µM) | 6.2 (≈ 4.72 µM)
8 | N=C(N)NCCC[C@H](NC(=O)[C@H](CCCNC(=N)N)NC(=O)[C@H](CCCNC(=N)N)NC(=O)[C@@H](N)CCCNC(=N)N)C(=O)N[C@@H](Cc1ccc(-c2ccccc2)cc1)C(=O)N[C@@H](Cc1ccc(-c2ccccc2)cc1)C(=O)N[C@@H](Cc1ccc(-c2ccccc2)cc1)C(=O)N[C@@H](Cc1ccc(-c2ccccc2)cc1)C(=O)O (H-RRRR[Bip][Bip][Bip][Bip]-OH) | > 100 | – | > 100 | > 100 | > 100
9 | N=C(N)NCCC[C@H](NC(=O)[C@H](CCCNC(=N)N)NC(=O)[C@@H](N)CCCNC(=N)N)C(=O)N[C@@H](CCCNC(=N)N)C(=O)N[C@H](C(=O)N[C@H](C(=O)O)C(c1ccccc1)c1ccccc1)C(c1ccccc1)c1ccccc1 (H-RRRR[Dip][Dip]-OH) | 50 (≈ 45.9 µM) | 185 | 12.5 (≈ 11.5 µM) | 50 (≈ 45.9 µM) | 12.5 (≈ 11.5 µM)
10 | N=C(N)NCCC[C@H](NC(=O)[C@H](CCCNC(=N)N)NC(=O)[C@@H](N)CCCNC(=N)N)C(=O)N[C@@H](CCCNC(=N)N)C(=O)N[C@H](C(=O)N[C@H](C(=O)N[C@H](C(=O)N[C@H](C(=O)O)C(c1ccccc1)c1ccccc1)C(c1ccccc1)c1ccccc1)C(c1ccccc1)c1ccccc1)C(c1ccccc1)c1ccccc1 (H-RRRR[Dip][Dip][Dip][Dip]-OH) | 50 (≈ 32.6 µM) | 75 | 12.5 (≈ 8.14 µM) | 50 (≈ 32.6 µM) | 6.2 (≈ 4.04 µM)
11 | N=C(N)NCCC[C@H](NC(=O)[C@H](CCCNC(=N)N)NC(=O)[C@@H](N)CCCNC(=N)N)C(=O)N[C@@H](Cc1ccc2ccccc2c1)C(=O)N[C@@H](Cc1ccc2ccccc2c1)C(=O)N[C@@H](Cc1ccc2ccccc2c1)C(=O)O (H-RRR[2Nal][2Nal][2Nal]-OH) | 12.5 (≈ 11.6 µM) | 105 | 6.2 (≈ 5.75 µM) | 25 (≈ 23.2 µM) | 6.2 (≈ 5.75 µM)
12 | N=C(N)NCCC[C@H](NC(=O)[C@H](CCCNC(=N)N)NC(=O)[C@@H](N)CCCNC(=N)N)C(=O)N[C@@H](Cc1ccc(-c2ccccc2)cc1)C(=O)N[C@@H](Cc1ccc(-c2ccccc2)cc1)C(=O)N[C@@H](Cc1ccc(-c2ccccc2)cc1)C(=O)O (H-RRR[Bip][Bip][Bip]-OH) | > 100 | – | 50 (≈ 43.2 µM) | > 100 | 50 (≈ 43.2 µM)
13 | N=C(N)NCCC[C@H](NC(=O)[C@H](CCCNC(=N)N)NC(=O)[C@@H](N)CCCNC(=N)N)C(=O)N[C@H](C(=O)N[C@H](C(=O)N[C@H](C(=O)O)C(c1ccccc1)c1ccccc1)C(c1ccccc1)c1ccccc1)C(c1ccccc1)c1ccccc1 (H-RRR[Dip][Dip][Dip]-OH) | 6.2 (≈ 5.36 µM) | 120 | 6.2 (≈ 5.36 µM) | 25 (≈ 21.6 µM) | 6.2 (≈ 5.36 µM)
14 | N=C(N)NCCC[C@H](NC(=O)[C@H](CCCNC(=N)N)NC(=O)[C@H](Cc1ccc2ccccc2c1)NC(=O)[C@H](Cc1ccc2ccccc2c1)NC(=O)[C@H](CCCNC(=N)N)NC(=O)[C@@H](N)CCCNC(=N)N)C(=O)N[C@@H](Cc1ccc2ccccc2c1)C(=O)O (H-RR[2Nal][2Nal]RR[2Nal]-OH) | 25 (≈ 20.3 µM) | 195 | 25 (≈ 20.3 µM) | 25 (≈ 20.3 µM) | 12.5 (≈ 10.1 µM)
15 | N=C(N)NCCC[C@H](NC(=O)[C@H](CCCNC(=N)N)NC(=O)[C@@H](NC(=O)[C@@H](NC(=O)[C@H](CCCNC(=N)N)NC(=O)[C@@H](N)CCCNC(=N)N)C(c1ccccc1)c1ccccc1)C(c1ccccc1)c1ccccc1)C(=O)N[C@H](C(=O)O)C(c1ccccc1)c1ccccc1 (H-RR[Dip][Dip]RR[Dip]-OH) | 25 (≈ 19 µM) | 240 | 12.5 (≈ 9.52 µM) | 25 (≈ 19 µM) | 12.5 (≈ 9.52 µM)
16 | N=C(N)NCCC[C@H](NC(=O)[C@H](Cc1ccc2ccccc2c1)NC(=O)[C@H](Cc1ccc2ccccc2c1)NC(=O)[C@H](CCCNC(=N)N)NC(=O)[C@H](CCCNC(=N)N)NC(=O)[C@H](Cc1ccc2ccccc2c1)NC(=O)[C@@H](N)CCCNC(=N)N)C(=O)O (H-R[2Nal]RR[2Nal][2Nal]R-OH) | 25 (≈ 20.3 µM) | 205 | 25 (≈ 20.3 µM) | 50 (≈ 40.5 µM) | 12.5 (≈ 10.1 µM)
17 | N=C(N)NCCC[C@H](NC(=O)[C@@H](NC(=O)[C@@H](NC(=O)[C@H](CCCNC(=N)N)NC(=O)[C@H](CCCNC(=N)N)NC(=O)[C@@H](NC(=O)[C@@H](N)CCCNC(=N)N)C(c1ccccc1)c1ccccc1)C(c1ccccc1)c1ccccc1)C(c1ccccc1)c1ccccc1)C(=O)O (H-R[Dip]RR[Dip][Dip]R-OH) | 25 (≈ 19 µM) | 220 | 25 (≈ 19 µM) | 100 (≈ 76.2 µM) | 12.5 (≈ 9.52 µM)
18 | N=C(N)NCCC[C@@H]1NC(=O)[C@H](CCCNC(=N)N)NC(=O)[C@H](CCCNC(=N)N)NC(=O)[C@H](Cc2ccc3ccccc3c2)NC(=O)[C@H](Cc2ccc3ccccc3c2)NC(=O)[C@H](CCCNC(=N)N)NC1=O (cyclo([2Nal][2Nal]RRRR)) | 50 (≈ 49.1 µM) | 125 | 6.2 (≈ 6.08 µM) | 50 (≈ 49.1 µM) | 6.2 (≈ 6.08 µM)
19 | N=C(N)NCCC[C@@H]1NC(=O)[C@H](CCCNC(=N)N)NC(=O)[C@H](Cc2ccc3ccccc3c2)NC(=O)[C@H](Cc2ccc3ccccc3c2)NC(=O)[C@H](Cc2ccc3ccccc3c2)NC(=O)[C@H](CCCNC(=N)N)NC1=O (cyclo([2Nal][2Nal][2Nal]RRR)) | 25 (≈ 23.6 µM) | 50 | 6.2 (≈ 5.85 µM) | 50 (≈ 47.2 µM) | 3.1 (≈ 2.92 µM)
20 | N=C(N)NCCC[C@@H]1NC(=O)[C@H](CCCNC(=N)N)NC(=O)[C@H](Cc2ccc(-c3ccccc3)cc2)NC(=O)[C@H](Cc2ccc(-c3ccccc3)cc2)NC(=O)[C@H](Cc2ccc(-c3ccccc3)cc2)NC(=O)[C@H](CCCNC(=N)N)NC1=O (cyclo([Bip][Bip][Bip]RRR)) | > 100 | – | 50 (≈ 43.9 µM) | > 100 | 50 (≈ 43.9 µM)
21 | N=C(N)NCCC[C@@H]1NC(=O)[C@H](CCCNC(=N)N)NC(=O)[C@H](CCCNC(=N)N)NC(=O)[C@H](Cc2ccc(-c3ccccc3)cc2)NC(=O)[C@H](Cc2ccc(-c3ccccc3)cc2)NC(=O)[C@H](Cc2ccc(-c3ccccc3)cc2)NC(=O)[C@H](CCCNC(=N)N)NC1=O (cyclo([Bip][Bip][Bip]RRRR)) | > 100 | – | 6.2 (≈ 4.79 µM) | 25 (≈ 19.3 µM) | 3.1 (≈ 2.39 µM)
22 | N=C(N)NCCC[C@@H]1NC(=O)[C@H](CCCNC(=N)N)NC(=O)[C@H](CCCNC(=N)N)NC(=O)[C@H](Cc2ccc(-c3ccccc3)cc2)NC(=O)[C@H](Cc2ccc(-c3ccccc3)cc2)NC(=O)[C@H](Cc2ccc(-c3ccccc3)cc2)NC(=O)[C@H](Cc2ccc(-c3ccccc3)cc2)NC(=O)[C@H](CCCNC(=N)N)NC1=O (cyclo([Bip][Bip][Bip][Bip]RRRR)) | > 100 | – | > 100 | > 100 | 50 (≈ 32.9 µM)
